Several values for one entry are separate records, joined by “and”; a condition that tells them apart may be missing. Identical values can stand only once.
Columns and labels:
Assay in all cases: Checkerboard combination MIC testing
Type in all cases: cell-based, Aspergillus fumigatus
A. fumigatus MRL #28383 = conditions: A. fumigatus MRL 28383 (azole-resistant), read at 48 hours, duplicate
Description: (§1) To determine the type of interaction between a representative compound of the enfumafungin derivatives (SCY-078) with several antifungal agents against Aspergillus fumigatus, the most frequent mold causing invasive disease in humans, the checkerboard method was used. The citrate salt of the compound was used in the studies.
(§2) The checkerboard method involves the determination of percent growth inhibition of fungal cells in the presence of different combinations of drugs. Percent growth inhibition is calculated relative to growth in control wells which contain only cells and no drug. The assay was performed in 96-well microplates in which each row and each column contained twofold serial dilutions of drug A and drug B at concentrations ranging from 0 to slightly higher than their minimum inhibitory concentration (MIC). […] Then the inoculum was added to each well and the growth was evaluated after 48 hrs incubation to determine the first well in which growth was inhibited. The checkerboard-based determination of MICs of antifungal agents in combination was followed by further analysis employing the nonparametric fractional inhibitory concentration index (FICI), which is defined by the following equation:
(§3) [formula] where MIC-A and MIC-B are the MICs of drugs A and B, respectively.
(§4) Each drug was initially diluted in either sterile, distilled water or in DMSO, depending on whether the drug was water-soluble or water-insoluble, respectively.
(§5) Stock solution of SCY-078 was prepared in DMSO at 200 times the concentration desired for use in the drug plates. Serial dilutions of stock solution were conducted in DMSO to obtain eleven 2-fold dilutions of the drug. The SCY-078 solution was then diluted to 4 times the desired concentration in RPMI-1640 medium so that the DMSO would not limit growth of the organism and so that the quantity of DMSO was the same for every dilution.
(§6) Two 96-well plates are needed to conduct a combination test. Using a multichannel pipette, 50 μl of the lowest concentration of the first drug (Drug A) was added to each well of column 1 of the first plate (plate A) and column 1 of the second plate (plate B; rows A-D). Then, 50 μl of the next highest working dilution of Drug A was added to each well in column 2, continuing with dilutions until all columns 1-11 were filled. Column 12 was left empty. 50 μl of the lowest concentration of Drug B was added to each well in Row D of plate B. 50 μl of the next highest working dilution of Drug B was added to each well in row C of plate B, continuing with dilutions until all rows through row B of plate A were filled.
(§7) Following the above, 100 μl of organism inoculum was added to every well. The plates were then incubated for 48 hours and visually read after incubation.
(§8) The objective of the study was to determine whether the combination of SCY-078 with voriconazole, isavuconazole, or amphotericin B would result in a combined in vitro antifungal activity exceeding the sum of the activities of each drug alone. Combination MIC testing was performed using the checkerboard assay described above.
(§9) Initial MIC determinations of the individual antifungals were performed according to the Clinical and Laboratory Standards Institute (CLSI) M38-A2 standard for the susceptibility testing of filamentous fungi.
(§10) Combination MIC testing was performed using a checkerboard test method according to the Center for Medical Mycology SOP A11.3. The checkerboard combination test method is a modification of the microdilution antifungal susceptibility test wherein two test compounds are combined in varying concentrations to determine whether they have synergistic, antagonistic, or no effect on the respective MIC values.
(§11) Antifungals were serially diluted two-fold in RPMI medium to produce eleven concentrations each and were combined in wells of a microtiter plate. Two rows consisting of serial dilutions of each individual drug were included. All combination testing was conducted in duplicate. […]

A. fumigatus MRL #28378 = conditions: A. fumigatus MRL 28378 (wild-type), read at 48 hours, duplicate
Description: as §1, §2, §3, §4, §5, §6, §7, §8, §9, §10, §11

A. fumigatus MRL #28382 = conditions: A. fumigatus MRL 28382 (wild-type), read at 48 hours, duplicate
Description: as §1, §2, §3, §4, §5, §6, §7, §8, §9, §10, §11

A. fumigatus MRL #20438 = conditions: A. fumigatus MRL 20438 (wild-type), read at 48 hours, duplicate
Description: as §1, §2, §3, §4, §5, §6, §7, §8, §9, §10, §11

A. fumigatus MRL #28401 = conditions: A. fumigatus MRL 28401 (wild-type), read at 48 hours, duplicate
Description: as §1, §2, §3, §4, §5, §6, §7, §8, §9, §10, §11

A. fumigatus MRL #28500 = conditions: read at 48 hours, duplicate
Description: as §1, §2, §3, §4, §5, §6, §7, §8
A. fumigatus 28500 has a CYP51 mutation at F46Y.
as §9, §10
Antifungals were serially diluted two-fold in RPMI medium to produce eleven concentrations each and were combined in wells of a microtiter plate. Two rows consisting of serial dilutions of each individual drug were included. […]

[1] = SCY-078 combined with amphotericin B
[2] = drug alone, SCY-078/amphotericin B test
[3] = SCY-078 combined with voriconazole
[4] = Aspergillus fumigatus, SCY078, 48 h, drug alone, SCY-078/voriconazole test, read-out: MIC Alone

## C[C@@H]1[C@H](O)[C@@H](C)/C=C/C=C/C=C/C=C/C=C/C=C/C=C/[C@H](O[C@@H]2O[C@H](C)[C@@H](O)[C@H](N)[C@@H]2O)C[C@@H]2O[C@](O)(C[C@@H](O)C[C@@H](O)[C@H](O)CC[C@@H](O)C[C@@H](O)CC(=O)O[C@H]1C)C[C@H](O)[C@H]2C(=O)O [Amphotericin B, amphotericin B]
A. fumigatus MRL #28383; [1]
  MIC in Combination: 4 µg/mL and 2 µg/mL
A. fumigatus MRL #28383; [2]
  MIC Alone: 4 µg/mL and 2 µg/mL
A. fumigatus MRL #28378; [1]
  MIC in Combination: 0.5 µg/mL
A. fumigatus MRL #28378; [2]
  MIC Alone: 2 µg/mL
A. fumigatus MRL #28382; [1]
  MIC in Combination: 1 µg/mL and 0.5 µg/mL
A. fumigatus MRL #28382; [2]
  MIC Alone: 4 µg/mL
A. fumigatus MRL #20438; [1]
  MIC in Combination: 0.5 µg/mL
A. fumigatus MRL #20438; [2]
  MIC Alone: 4 µg/mL
A. fumigatus MRL #28401; [1]
  MIC in Combination: 1 µg/mL and 0.5 µg/mL
A. fumigatus MRL #28401; [2]
  MIC Alone: 4 µg/mL
A. fumigatus MRL #28500; A. fumigatus MRL 28500 (azole-resistant, CYP51 F46Y), SCY-078 combined with amphotericin B
  MIC in Combination: 1 µg/mL
A. fumigatus MRL #28500; A. fumigatus MRL 28500 (azole-resistant, CYP51 F46Y), drug alone, SCY-078/amphotericin B test
  MIC Alone: 4 µg/mL

## C[C@@H](c1ncncc1F)[C@](O)(Cn1cncn1)c1ccc(F)cc1F [Voriconazole, voriconazole]
A. fumigatus MRL #28383; [3]
  MIC in Combination: >16 µg/mL
A. fumigatus MRL #28383; [4]
  MIC: > 16 µg/mL
A. fumigatus MRL #28378; drug alone, SCY-078/voriconazole test
  MIC Alone: 0.25 µg/mL
A. fumigatus MRL #28378; [4]
  MIC: 0.5 µg/mL
A. fumigatus MRL #28382; [3]
  MIC in Combination: 0.125 µg/mL and 0.25 µg/mL
A. fumigatus MRL #28382; [4]
  MIC: 0.5 µg/mL
A. fumigatus MRL #20438; [3]
  MIC in Combination: 0.25 µg/mL
A. fumigatus MRL #20438; [4]
  MIC: 1 µg/mL
A. fumigatus MRL #28401; [3]
  MIC in Combination: 0.5 µg/mL
A. fumigatus MRL #28401; [4]
  MIC: 2 µg/mL
A. fumigatus MRL #28500; A. fumigatus MRL 28500 (azole-resistant, CYP51 F46Y), SCY-078 combined with voriconazole
  MIC in Combination: >16 µg/mL
A. fumigatus MRL #28500; Aspergillus fumigatus, SCY078, 48 h, read-out: MIC Alone, A. fumigatus MRL 28500 (azole-resistant, CYP51 F46Y), drug alone, SCY-078/voriconazole test
  MIC: > 16 µg/mL
